# Test results: US12667560B2, “Co-administration of mirdametinib and lifirafenib for use in treating cancers” (BeiGene, Ltd., priority 2020, dated 2026)
# Counter-ions that a name gives are not always drawn.
# Tested on: subcutaneous Calu-6 tumors which harbor a K-RAS mutation
# Assay: Efficacy study in Calu-6 K-RAS mutated human xenograft lung adenocarcinoma model
# Type: in vivo, Balb/c nude mice
# Conditions: Compound B maleate alone, 2.5 mg/kg (free base) p.o. BID, Group 2
# Protocol: To determine the effects of Compound B Maleate and Compound A, alone or in combination, on growth of subcutaneous Calu-6 tumors which harbor a K-RAS mutation in Balb/c nude mice in an Efficacy Study.
# Experimental designs for the Efficacy study are illustrated in Table 2.
# Each mouse was inoculated subcutaneously at the right flank with Calu-6 tumor cells (5×10^6 cells in 0.1 ml 50% Matrigel® in MEM). Tubes containing suspended cells and syringes were kept on ice to avoid solidification of Matrigel®. 2× overage was implemented for cell injection. When mean tumor volume reached the indicated sizes in Table 2, animals were randomly assigned to the indicated groups in Table 2 and received the first dosing. […]
# Tumor volumes and mouse body weights were measured three times weekly after tumors became palpable and before randomization and grouping. Afterwards, tumor volumes and mouse body weights were measured twice weekly to termination, in two dimensions using a caliper, and the tumor volumes were expressed in mm^3 using the formula: V=0.5 L×W^2, where L and W were the long and short diameters of the tumor, respectively. The TGI value for the drug A-treated group at Day X was calculated as following: TGI (%)={1−[mTV(drug at Day X)−mTV(drug at Day 0)]/[mTV(veh at Day X)−mTV(veh at Day 0)]}×100, where mTV represented mean tumor volume. […]
smiles,measurement,value
O=C1CCc2c(Oc3ccc4c(c3)[C@@H]3[C@H](C4)[C@H]3c3nc4ccc(C(F)(F)F)cc4[nH]3)ccnc2N1 [Compound B maleate],inhibition of Calu-6 tumor growth compared to the vehicle control,significant inhibition
